Laboratory results: PMC11111408, “Concurrent inhibition of oncogenic and wild-type RAS-GTP for cancer therapy” (Nature, 2024)
Where “and” joins values, the source holds several entries; their conditions need not be identical. Equal entries are not always repeated. Where two headings read alike, the source gives them in different places.

Tests used:
NCI-H441 CDX tumours = experiment: NCI-H441 CDX efficacy study; format: in vivo, mouse; conditions: NCI-H441 model, 10 mg kg^−1 daily oral, 28 days
Protocol: Xenograft studies were conducted at GenenDesign, Pharmaron, Wuxi AppTec, the laboratory of P. Lito, and the laboratory of C. Ambrogio. […] All procedures related to animal handling, care and treatment were conducted in compliance with all applicable regulations and guidelines of the relevant Institutional Animal Care and Use Committee (IACUC). […] Experimental details are supplied in the Supplementary Methods.

GMPPNP–KRAS = target: T1, GMPPNP–KRAS (Homo sapiens, UniProt P01116, G12C); experiment: SPR binding of RMC-7977 to KRAS in the absence of CYPA; conditions: compound alone without CYPA
T1 construct: His6-TEV (N); made in house; host or cells: E. coli BL21(DE3)

[1] = tested on: AsPC-1 and NCI-H441 cells; experiment: pERK (MSD) and proliferation (CTG) in AsPC-1 and NCI-H441 cells, CYPA inhibitor co-treatment or PPIA KO; format: cell-based, human; conditions: for Proliferation, RMC-7977 with or without CYPA inhibitor (panel title not shown): ASPC1, RMC-7977 alone; for activity at 0.0037 µM / activity at 0.01111 µM / activity at 0.03333 µM / activity at 15.2 pM / activity at 45.7 pM / activity at 0.00041 µM / activity at 0.1 µM / activity at 0.3 µM / activity at 5.08 pM: Homo sapiens;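 as to Proliferation inhibition with CYPA inhibitor competition: luminescence as % of CYPA inhibitor-only control with 3 mM sanglifehrin A competitor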
Capan-1 cells = experiment: Cellular ERK phosphorylation (pERK); format: cell-based; conditions: Homo sapiens; Capan-1 (KRAS^G12V PDAC); (95% CI)

Compound: CCn1c(-c2cc(N3CCN(C4CC4)CC3)cnc2[C@H](C)OC)c2c3cc(ccc31)-c1csc(n1)C[C@H](NC(=O)[C@H]1[C@@H]3COC[C@@H]31)C(=O)N1CCC[C@H](N1)C(=O)OCC(C)(C)C2 [RMC-7977]
- mean tumour regression (NCI-H441 CDX tumours): 83%
- binding to GMPPNP–KRAS (GMPPNP–KRAS): neither RMC-7977 nor CYPA alone exhibited any measurable binding
- Proliferation inhibition with CYPA inhibitor competition ([1]; ASPC1, RMC-7977 0.0152 nM): 90.9654
- pERK signal remaining (% of control) with CYPA inhibitor competition ([1]; ASPC1, RMC-7977 0.0152 nM): 120.616 and 135.308 and 125.91 and 115.107
- Proliferation inhibition with CYPA inhibitor competition ([1]; ASPC1, RMC-7977 0.0457 nM): 85.8573
- pERK signal remaining (% of control) with CYPA inhibitor competition ([1]; ASPC1, RMC-7977 0.0457 nM): 139.301 and 149.714 and 121.136 and 102.253
- Proliferation inhibition with CYPA inhibitor competition ([1]; ASPC1, RMC-7977 0.41 nM): 72.6185 and 81.3976
- pERK signal remaining (% of control) with CYPA inhibitor competition ([1]; ASPC1, RMC-7977 0.41 nM): 110.343 and 126.372 and 94.9104 and 97.1292
- Proliferation inhibition with CYPA inhibitor competition ([1]; ASPC1, RMC-7977 3.70 nM): 35.3653 and 35.6028
- Proliferation inhibition with CYPA inhibitor competition ([1]; ASPC1, RMC-7977 11.11 nM): 15.7797 and 21.3117
- Proliferation inhibition with CYPA inhibitor competition ([1]; ASPC1, RMC-7977 33.33 nM): 8.746 and 8.58
- Proliferation inhibition with CYPA inhibitor competition ([1]; ASPC1, RMC-7977 100.00 nM): 4.002 and 7.934
- Proliferation, RMC-7977 with or without CYPA inhibitor (panel title not shown) ([1]; 0.0152 nM, 15.2 pM): 91.3484
- Proliferation, RMC-7977 with or without CYPA inhibitor (panel title not shown) ([1]; 0.0457 nM, 45.7 pM): 92.4729
- Proliferation, RMC-7977 with or without CYPA inhibitor (panel title not shown) ([1]; 0.41 nM, 0.00041 µM): 80.9316
- Proliferation, RMC-7977 with or without CYPA inhibitor (panel title not shown) ([1]; 3.70 nM, 0.0037 µM): 50.3479
- Proliferation, RMC-7977 with or without CYPA inhibitor (panel title not shown) ([1]; 11.11 nM, 0.01111 µM): 24.3804
- Proliferation, RMC-7977 with or without CYPA inhibitor (panel title not shown) ([1]; 33.33 nM, 0.03333 µM): 12.3077
- Proliferation, RMC-7977 with or without CYPA inhibitor (panel title not shown) ([1]; 100.00 nM, 0.1 µM): 7.228
- Proliferation, RMC-7977 with or without CYPA inhibitor (panel title not shown) ([1]; 300.00 nM, 0.3 µM): 13.3948
- Proliferation, RMC-7977 with or without CYPA inhibitor (panel title not shown) ([1]; […], 5.08 pM): 94.1273
- activity at 0.0037 µM ([1]; ASPC1, read-out: Proliferation inhibition in PPIA KO cells treated with RMC-7977, AsPC-1, 3.70 nM): 33%
- activity at 0.01111 µM ([1]; ASPC1, read-out: Proliferation inhibition in PPIA KO cells treated with RMC-7977, AsPC-1, 11.11 nM): 17.6%
- activity at 0.03333 µM ([1]; ASPC1, read-out: Proliferation inhibition in PPIA KO cells treated with RMC-7977, AsPC-1, 33.33 nM): 8.78%
- activity at 15.2 pM ([1]; ASPC1, read-out: Proliferation, RMC-7977 with or without CYPA inhibitor (panel title not shown), ASPC1, RMC-7977 alone, 0.0152 nM): 102%
- activity at 45.7 pM ([1]; ASPC1, read-out: Proliferation, RMC-7977 with or without CYPA inhibitor (panel title not shown), ASPC1, RMC-7977 alone, 0.0457 nM): 92.6%
- activity at 0.00041 µM ([1]; ASPC1, read-out: Proliferation, RMC-7977 with or without CYPA inhibitor (panel title not shown), ASPC1, RMC-7977 alone, 0.41 nM): 84.8%
- activity at 0.0037 µM ([1]; ASPC1, read-out: Proliferation, RMC-7977 with or without CYPA inhibitor (panel title not shown), ASPC1, RMC-7977 alone, 3.70 nM): 47.4%
- activity at 0.01111 µM ([1]; ASPC1, read-out: Proliferation, RMC-7977 with or without CYPA inhibitor (panel title not shown), ASPC1, RMC-7977 alone, 11.11 nM): 29.5%
- activity at 0.03333 µM ([1]; ASPC1, read-out: Proliferation, RMC-7977 with or without CYPA inhibitor (panel title not shown), ASPC1, RMC-7977 alone, 33.33 nM): 12.8%
- activity at 0.1 µM ([1]; ASPC1, read-out: Proliferation, RMC-7977 with or without CYPA inhibitor (panel title not shown), ASPC1, RMC-7977 alone, 100.00 nM): 7.14%
- activity at 0.3 µM ([1]; ASPC1, read-out: Proliferation, RMC-7977 with or without CYPA inhibitor (panel title not shown), ASPC1, RMC-7977 alone, 300.00 nM): 14.9%
- activity at 5.08 pM ([1]; ASPC1, read-out: Proliferation, RMC-7977 with or without CYPA inhibitor (panel title not shown), ASPC1, RMC-7977 alone, […]): 101%
- activity at 0.00041 µM ([1]; ASPC1, read-out: pERK inhibition in PPIA KO cells treated with RMC-7977, AsPC-1, 0.41 nM): 85.8%
- activity at 5.08 pM ([1]; ASPC1, read-out: pERK inhibition in PPIA KO cells treated with RMC-7977, AsPC-1, […]): 109%
- activity at 0.0037 µM ([1]; ASPC1, read-out: pERK inhibition in PPIA KO cells treated with RMC-7977, AsPC-1 PPIA KO, 3.70 nM): 109%
- activity at 0.01111 µM ([1]; ASPC1, read-out: pERK inhibition in PPIA KO cells treated with RMC-7977, AsPC-1 PPIA KO, 11.11 nM): 110%
- activity at 15.2 pM ([1]; NCI-H441, read-out: Proliferation inhibition in PPIA KO cells treated with RMC-7977, NCI-H441, 0.0152 nM): 124%
- activity at 45.7 pM ([1]; NCI-H441, read-out: Proliferation inhibition in PPIA KO cells treated with RMC-7977, NCI-H441, 0.0457 nM): 124%
- activity at 0.0037 µM ([1]; NCI-H441, read-out: Proliferation inhibition in PPIA KO cells treated with RMC-7977, NCI-H441, 3.70 nM): 33%
- activity at 0.01111 µM ([1]; NCI-H441, read-out: Proliferation inhibition in PPIA KO cells treated with RMC-7977, NCI-H441, 11.11 nM): 24.4%
- activity at 0.03333 µM ([1]; NCI-H441, read-out: Proliferation inhibition in PPIA KO cells treated with RMC-7977, NCI-H441, 33.33 nM): 22.2%
- activity at 0.1 µM ([1]; NCI-H441, read-out: Proliferation inhibition in PPIA KO cells treated with RMC-7977, NCI-H441, 100.00 nM): 23.6%
- activity at 0.3 µM ([1]; NCI-H441, read-out: Proliferation inhibition in PPIA KO cells treated with RMC-7977, NCI-H441, 300.00 nM): 27.5%
- activity at 5.08 pM ([1]; NCI-H441, read-out: Proliferation inhibition in PPIA KO cells treated with RMC-7977, NCI-H441, […]): 120%
- activity at 0.00041 µM ([1]; NCI-H441, read-out: pERK inhibition in PPIA KO cells treated with RMC-7977, NCI-H441, 0.41 nM): 88.1%
- activity at 0.0037 µM ([1]; NCI-H441, read-out: pERK inhibition in PPIA KO cells treated with RMC-7977, NCI-H441, 3.70 nM): 11.8%
- Proliferation inhibition with CYPA inhibitor competition ([1]; NCI-H441, RMC-7977 0.0152 nM): 112.235 and 120.202
- pERK signal remaining (% of control) with CYPA inhibitor competition ([1]; NCI-H441, RMC-7977 0.0152 nM): 101.09 and 141.742 and 99.9715 and 108.212
- Proliferation inhibition with CYPA inhibitor competition ([1]; NCI-H441, RMC-7977 0.0457 nM): 127.307 and 133.477
- pERK signal remaining (% of control) with CYPA inhibitor competition ([1]; NCI-H441, RMC-7977 0.0457 nM): 116.541 and 138.344 and 94.9151 and 96.9475
- Proliferation inhibition with CYPA inhibitor competition ([1]; NCI-H441, RMC-7977 0.41 nM): 83.6742 and 95.5735 and 83.4726 and 112.168
- Proliferation inhibition with CYPA inhibitor competition ([1]; NCI-H441, RMC-7977 3.70 nM): 34.5277 and 37.2472 and 40.6838 and 40.7762
- pERK signal remaining (% of control) with CYPA inhibitor competition ([1]; NCI-H441, RMC-7977 3.70 nM): 11.9888 and 19.4005 and 10.392 and 10.3218
- Proliferation inhibition with CYPA inhibitor competition ([1]; NCI-H441, RMC-7977 11.11 nM): 26.6151 and 22.9193 and 35.0508 and 37.4802
- Proliferation inhibition with CYPA inhibitor competition ([1]; NCI-H441, RMC-7977 33.33 nM): 29.0347 and 22.8651 and 29.7232 and 34.4423
- Proliferation inhibition with CYPA inhibitor competition ([1]; NCI-H441, RMC-7977 100.00 nM): 28.8791 and 27.2758 and 27.7958 and 31.2386
- Proliferation inhibition with CYPA inhibitor competition ([1]; NCI-H441, RMC-7977 300.00 nM): 32.3111 and 29.0775 and 27.5922 and 25.4872
- EC50 (Capan-1 cells): 0.421 nM
